Test results from patent publication US20160166576A1, “SUBSTITUTED AMIDOPYRAZOLE INHIBITORS OF INTERLEUKIN RECEPTOR-ASSOCIATED KINASES (IRAK-4)” (MERCK SHARP & DOHME CORP., priority 2013, published 2016).
Read-outs that look alike come from different tables or passages of the source.

How the values were obtained:
IRAK4 = target: T1, IRAK4 (Homo sapiens, UniProt Q9NWZ3); assay: IRAK4 IMAP kinase activity assay (fluorescence polarization); assay type: biochemical; conditions: 1 nM GST tagged IRAK4, 100 μM ATP, 1 hour at 25° C.
T1 construct: GST; purchased SignalChem
T1 sequence (Q9NWZ3 1-460): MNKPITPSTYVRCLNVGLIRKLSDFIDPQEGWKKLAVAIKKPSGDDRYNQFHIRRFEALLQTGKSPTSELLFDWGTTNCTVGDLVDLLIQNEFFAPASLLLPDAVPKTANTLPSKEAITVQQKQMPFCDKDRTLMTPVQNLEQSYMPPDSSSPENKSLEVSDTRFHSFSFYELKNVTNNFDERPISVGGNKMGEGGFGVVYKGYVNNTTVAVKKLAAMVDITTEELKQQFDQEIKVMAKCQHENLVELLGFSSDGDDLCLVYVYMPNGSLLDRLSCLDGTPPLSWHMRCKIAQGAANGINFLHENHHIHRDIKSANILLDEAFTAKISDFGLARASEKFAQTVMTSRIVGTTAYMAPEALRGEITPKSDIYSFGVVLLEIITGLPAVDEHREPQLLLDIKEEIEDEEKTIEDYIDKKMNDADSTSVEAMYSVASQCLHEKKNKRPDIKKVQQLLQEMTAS
Protocol: Determination of IRAK4 Kinase Activity
The kinase activity of IRAK4 is determined by its ability to catalyze the phosphorylation of a fluorescent polypeptide substrate. The extent of phosphorylation is measured using IMAP technology (Molecular Devices) where the phosphorylated fluorescent substrate binds to the large M(III)-based nanoparticles which reduces the rotational speed of the substrate and thus increases its fluorescent polarization (FP).
Procedure: A 20 μl reaction mixture contains 10 mM TriHC1, pH 7.2, 1 nM GST tagged IRAK4 (SignalChem), 100 nM fluorescent peptide substrate (RP7030, Molecular Devices), 100 μM ATP, 1 mM DTT, 2 mM MgCl2, and 0.01% Tween 20. The reaction is initiated by the addition of ATP. After incubation for 1 hour at 25° C., 60 μl of Progressive IMAP Reagent (Molecular Devices) is added to stop the reaction. Change in RP7030's FP is determined by a FP reader (EnVision Multilabel Reader, Perkin Elmer).

[1] = Rat pharmacokinetics after PO and SC dosing; assay type: in vivo, female Lewis rats; conditions: for Cmax: rat, fed female Lewis rats, plasma; for Cmax compared to that of Compound A: rats, at either 30 mpk SC dosing or 30 mpk PO dosing or both
Protocol: Pharmacokinetic Properties
Pharmacokinetic parameters were determined following PO and SC dosing at 30 mg/kg in fed female Lewis rats. Compounds were formulated for both PO and SC dosing in 50/50 (v/v) 50% captisol/50 mM citrate buffer (pH 4). Plasma samples obtained from dosed animals were prepared for analysis by means of a single step protein precipitation technique by adding 200 μL of acetonitrile to 50 μL aliquots of individual subject samples. Samples were mixed by vortex for homogeneity and then subjected to centrifugation at 3500 rpm for 10 min. The supernatant (200 μL) was collected and injected into the LC-MS/MS for analysis. Pharmacokinetic parameters were calculated using established non-compartmental methods.

[2] = 30 mg/kg PO, read-out: Rat PK, 30 mpk PO, Cmax
[3] = 30 mg/kg SC, read-out: Rat PK, 30 mpk SC, Cmax

Row | SMILES | IC50 (IRAK4) [nM] | Cmax [1, 2] [µM] | Cmax [1, 3] [µM] | Cmax compared to that of Compound A [1]
1 | Cc1ccc(-n2nc(N3CCN([C@@H]4CCS(=O)(=O)C4)CC3)cc2NC(=O)c2cnn3cccnc23)nc1 [Compound 8, N-[3-{4-[(3R)-1,1-dioxidotetrahydrothiophen-3-yl]piperazin-1-yl}-1-(5-methylpyridin-2-yl)-1H-pyrazol-5-yl]pyrazolo[1,5-a]pyrimidine-3-carboxamide] | 1 | 8.6 | 1.5 | superior
2 | Cc1ccc(-n2nc(N3CCN([C@H]4CCS(=O)(=O)C4)CC3)cc2NC(=O)c2cnn3cccnc23)nc1 [Compound 9, N-[3-{4-[(3S)-1,1-dioxidotetrahydrothiophen-3-yl]piperazin-1-yl}-1-(5-methylpyridin-2-yl)-1H-pyrazol-5-yl]pyrazolo[1,5-a]pyrimidine-3-carboxamide] | 2 | 7.7 | 8.1 | superior
3 | Cc1ccc(-n2nc(N3CCN(CC(N)=O)CC3)cc2NC(=O)c2cnn3cccnc23)nc1 [Compound 16, N-{3-[4-(2-amino-2-oxoethyl)piperazin-1-yl]-1-(5-methylpyridin-2-yl)-1H-pyrazol-5-yl}pyrazolo[1,5-a]pyrimidine-3-carboxamide] | 4 | 4.3 | 16.1 | superior
4 | Cc1ccc(-n2nc(N3CCN(C)CC3)cc2NC(=O)c2cnn3ccccc23)nc1 [Compound A, reference compound] | 2 | 1 | 3.3 | 
